Source: patent US8143243B2, “Compounds for the treatment of hepatitis C” (Bristol-Myers Squibb Company, priority 2007, dated 2012)
Where two headings read alike, the source gives them in different places.

Key:
[1] = system: HCV replicon cells; experiment: HCV replicon FRET / luciferase assay; assay type: cell-based; conditions: Hepatitis C virus
In short: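 Replicon cells (with or without Renilla luciferase reporter) incubated with titrated compounds at 37 °C; Alamar blue read for cytotoxicity first. NS3 protease activity read kinetically with 20 μM EDANS/DABCYL FRET peptide in lysis reagent plus 150 mM NaCl (ex 340/em 490), or by Dual-Glo luciferase. EC50 = 50% signal reduction after protease-inhibitor background subtraction.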

[2] = target: T1, HCV NS5B (Hepatitis C virus genotype 1b, UniProt Q9WMX2); experiment: HCV NS5B RdRp enzyme assay (standard / modified); assay type: biochemical
T1 construct: The protein was expressed with an 18 amino acid C-terminal truncation to enhance the solubility; made in house; host or cells: E. coli BL21 (DE3)
T1 sequence (Q9WMX2 2420-2992): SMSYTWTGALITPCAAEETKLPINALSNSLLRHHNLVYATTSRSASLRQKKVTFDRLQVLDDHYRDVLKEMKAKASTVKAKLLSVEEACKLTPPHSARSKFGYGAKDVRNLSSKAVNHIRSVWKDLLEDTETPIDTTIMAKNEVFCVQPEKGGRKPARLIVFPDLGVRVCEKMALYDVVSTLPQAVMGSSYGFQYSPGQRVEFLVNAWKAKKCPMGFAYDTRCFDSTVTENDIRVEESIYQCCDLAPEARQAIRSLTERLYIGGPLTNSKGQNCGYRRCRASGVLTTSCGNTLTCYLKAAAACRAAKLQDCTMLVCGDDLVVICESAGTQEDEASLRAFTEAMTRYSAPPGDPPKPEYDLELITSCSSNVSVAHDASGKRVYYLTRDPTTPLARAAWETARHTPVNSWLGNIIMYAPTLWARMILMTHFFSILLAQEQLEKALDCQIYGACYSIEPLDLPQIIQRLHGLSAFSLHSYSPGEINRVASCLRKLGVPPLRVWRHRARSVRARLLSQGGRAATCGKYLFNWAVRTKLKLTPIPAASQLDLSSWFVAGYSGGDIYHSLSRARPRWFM
In short: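 NS5B genotype 1b, 18-aa C-terminal truncation, E. coli-expressed; polyA template with biotinylated oligo-dT12 primer, 3H-UTP 0.29 μM, 30° C, SPA read-out in 20 mM Hepes pH 7.5, 2% DMSO. Standard: 28 nM enzyme, 6 nM template, 180 nM primer, 60 min; modified: 14 nM enzyme, 0.2 nM template, 20 nM bead-precaptured primer, 4 h. IC50 from seven concentrations.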

[3] = HCV replicon cells, FRET or luciferase readout, read-out: EC50
[4] = HCV RdRp genotype 1b enzyme, read-out: IC50

## COc1ccc2c(c1)C=C(c1sccc1C(=O)O)Cn1c-2c(C2CCCCC2)c2ccc(C(=O)NS(=O)(=O)C(C)C)cc21
[1]; [3]
  EC50: > 40 nM
[2]; [4]
  IC50: 1 to 500 nM

## COc1ccc2c(c1)C=C(c1c(C(=O)N3C[C@@H](C)O[C@@H](C)C3)c(C(F)(F)F)nn1C)Cn1c-2c(C2CCCCC2)c2ccc(C(=O)NS(=O)(=O)C(C)C)cc21
[1]; [3]
  EC50: 1 to 500 nM
[2]; [4]
  IC50: < 20 nM

## COc1ccc2c(c1)C=C(c1c(C(=O)N3CCN(C)CC3)cnn1C)Cn1c-2c(C2CCCCC2)c2ccc(C(=O)NS(=O)(=O)N3CCOCC3)cc21
[1]; [3]
  EC50: 1 to 500 nM
[2]; [4]
  IC50: 1 to 500 nM

## COc1ccc2c(c1)C=C(c1c(C(=O)N3CC4CCC(C3)N4C)cnn1C)Cn1c-2c(C2CCCCC2)c2ccc(C(=O)NS(=O)(=O)C(C)C)cc21
[1]
  EC50: 1 to 500 nM
[2]
  IC50: 1 to 500 nM

## COc1ccc2c(c1)C=C(c1c(C(=O)N3C[C@@H](C)O[C@@H](C)C3)cnn1C(C)C)Cn1c-2c(C2CCCCC2)c2ccc(C(=O)NS(=O)(=O)CC(C)C)cc21
[1]; [3]
  EC50: 1 to 500 nM
[2]; [4]
  IC50: 1 to 500 nM

## COc1ccc2c(c1)C=C(c1c(C(=O)N3C4C=C(C)CC3CC4)cnn1C(C)C)Cn1c-2c(C2CCCCC2)c2ccc(C(=O)NS(=O)(=O)C(C)C)cc21 (centres unmarked)
[1]
  EC50: 1 to 500 nM
[2]
  IC50: 1 to 500 nM

## COc1ccc2c(c1)C=C(c1c(C(=O)N3CC4CCC(C3)N4C)cnn1CC(F)(F)F)Cn1c-2c(C2CCCCC2)c2ccc(C(=O)NS(=O)(=O)C(C)C)cc21
[1]
  EC50: 1 to 500 nM
[2]
  IC50: 1 to 500 nM

## COc1ccc2c(c1)C=C(c1c(C(=O)N3C[C@@H](C)N(C)[C@@H](C)C3)cnn1C(C)C)Cn1c-2c(C2CCCCC2)c2ccc(C(=O)NS(=O)(=O)CC(C)C)cc21
[1]; [3]
  EC50: 1 to 500 nM
[2]; [4]
  IC50: 1 to 500 nM

## COc1ccc2c(c1)C=C(c1c(C(=O)N3CCOC(CN(C)C)C3)cnn1C)Cn1c-2c(C2CCCCC2)c2ccc(C(=O)NS(=O)(=O)N3CCOCC3)cc21 (centres unmarked)
[1]; [3]
  EC50: 1 to 500 nM
[2]; [4]
  IC50: 1 to 500 nM

## CCn1ncc(C(=O)N2CCOCC2)c1C1=Cc2cc(OC)ccc2-c2c(C3CCCCC3)c3ccc(C(=O)NS(=O)(=O)N(C)C)cc3n2C1
[1]; [3]
  EC50: 1 to 500 nM
[2]; [4]
  IC50: 1 to 500 nM

## COC(=O)c1c(C)nn(C)c1C1=Cc2cc(OC)ccc2-c2c(C3CCCCC3)c3ccc(C(=O)O)cc3n2C1
[1]; [3]
  EC50: 1 to 500 nM
[2]; [4]
  IC50: 1 to 500 nM

## CCOC(=O)c1cnn(C)c1C1=Cc2cc(OC)ccc2-c2c(C3CCCCC3)c3ccc(C(=O)O)cc3n2C1
[1]; [3]
  EC50: 1 to 500 nM
[2]; [4]
  IC50: 1 to 500 nM

## CCn1ncc(C(=O)N2CCN(C)CC2)c1C1=Cc2cc(OC)ccc2-c2c(C3CCCCC3)c3ccc(C(=O)NS(=O)(=O)N4CCCC4)cc3n2C1
[1]; [3]
  EC50: 1 to 500 nM
[2]; [4]
  IC50: 1 to 500 nM

## COc1ccc2c(c1)C=C(c1c(C(=O)N3C4C=C(C)CC3CC4)cnn1C(C)C)Cn1c-2c(C2CCCCC2)c2ccc(C(=O)NS(=O)(=O)CC(C)C)cc21 (centres unmarked)
[1]
  EC50: 1 to 500 nM
[2]
  IC50: 1 to 500 nM

## COc1ccc2c(c1)C=C(c1c(C(=O)N3C[C@@H](C)O[C@@H](C)C3)cnn1C)Cn1c-2c(C2CCCCC2)c2ccc(C(=O)NS(=O)(=O)C(C)C)cc21
[1]; [3]
  EC50: 1 to 500 nM
[2]; [4]
  IC50: 1 to 500 nM

## COc1ccc2c(c1)C=C(c1c(C(=O)N3C[C@@H](C)N(C)[C@@H](C)C3)cnn1C)Cn1c-2c(C2CCCCC2)c2ccc(C(=O)NS(=O)(=O)N3CCOCC3)cc21
[1]; [3]
  EC50: 1 to 500 nM
[2]; [4]
  IC50: 1 to 500 nM

## COc1ccc2c(c1)C=C(c1c(C(=O)N3CCC(N4CCCC4)CC3)cnn1C)Cn1c-2c(C2CCCCC2)c2ccc(C(=O)NS(=O)(=O)N3CCOCC3)cc21
[1]; [3]
  EC50: > 500 nM
[2]; [4]
  IC50: 1 to 500 nM

## COC[C@@H]1CN(C(=O)c2cnn(CC(F)(F)F)c2C2=Cc3cc(OC)ccc3-c3c(C4CCCCC4)c4ccc(C(=O)NS(=O)(=O)C(C)C)cc4n3C2)CCO1
[1]; [3]
  EC50: 1 to 500 nM
[2]; [4]
  IC50: 1 to 500 nM

## COc1ccc2c(c1)C=C(c1c(C(=O)N3CC(C)OC(C)C3)cnn1C(C)C)Cn1c-2c(C2CCCCC2)c2ccc(C(=O)NS(=O)(=O)C(C)C)cc21 (centres unmarked)
[1]; [3]
  EC50: 1 to 500 nM
[2]; [4]
  IC50: 1 to 500 nM

## COc1ccc2c(c1)C=C(c1c(C(=O)N3C4CCC3CN(C)C4)cnn1C)Cn1c-2c(C2CCCCC2)c2ccc(C(=O)NS(=O)(=O)C3CCC3)cc21
[1]
  EC50: 1 to 500 nM
[2]
  IC50: 1 to 500 nM

## CCN(CC)C(=O)c1sccc1C1=Cc2cc(OC)ccc2-c2c(C3CCCCC3)c3ccc(C(=O)NS(=O)(=O)N(C)C)cc3n2C1
[1]; [3]
  EC50: 1 to 500 nM
[2]; [4]
  IC50: 1 to 500 nM

## COc1ccc2c(c1)C=C(c1c(C(=O)N3CC4CCC(C3)O4)c(C(F)(F)F)nn1C)Cn1c-2c(C2CCCCC2)c2ccc(C(=O)NS(=O)(=O)C(C)C)cc21
[1]; [3]
  EC50: 1 to 500 nM
[2]; [4]
  IC50: 1 to 500 nM
